{
  "source": "paper PMC3445262",
  "about": "(International immunopharmacology, 2011)",
  "key": {"[1]": {"biological_target": "CB2 receptor mutant W5.43(194)Y (Homo sapiens, UniProt P34972, W194Y)", "sequence (P34972 whole entry W194Y)": "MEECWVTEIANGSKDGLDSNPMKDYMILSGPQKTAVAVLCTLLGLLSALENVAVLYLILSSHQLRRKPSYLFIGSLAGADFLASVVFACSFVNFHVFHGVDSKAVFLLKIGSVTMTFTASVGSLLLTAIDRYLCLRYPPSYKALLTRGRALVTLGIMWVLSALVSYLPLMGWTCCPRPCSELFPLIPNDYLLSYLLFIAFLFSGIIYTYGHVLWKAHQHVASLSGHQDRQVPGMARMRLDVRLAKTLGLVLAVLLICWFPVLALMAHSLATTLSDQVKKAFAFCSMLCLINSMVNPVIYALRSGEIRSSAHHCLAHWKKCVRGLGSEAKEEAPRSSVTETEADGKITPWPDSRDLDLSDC", "type": "binding", "details": "W5.43(194)Y vs CB2 WT"}, "[2]": {"biological_target": "CB2 WT receptor in HEK293 cells (Homo sapiens, UniProt P34972)", "sequence (P34972 whole entry)": "as the sequence (P34972 whole entry W194Y) above, with Y194W counted along it", "type": "cell-based"}, "[3]": {"biological_target": "CB2 W194F mutant receptor in HEK293 cells (Homo sapiens, UniProt P34972, W194F)", "sequence (P34972 whole entry W194F)": "as the sequence (P34972 whole entry W194Y) above, with Y194F counted along it", "type": "cell-based"}, "[4]": {"biological_target": "CB2 W194A mutant receptor in HEK293 cells (Homo sapiens, UniProt P34972, W194A)", "sequence (P34972 whole entry W194A)": "as the sequence (P34972 whole entry W194Y) above, with Y194A counted along it", "type": "cell-based"}, "[5]": {"biological_target": "CB2 W194Y mutant receptor in HEK293 cells (Homo sapiens, UniProt P34972, W194Y)", "sequence (P34972 whole entry W194Y)": "as the sequence (P34972 whole entry W194Y) above", "type": "cell-based"}, "CB1 W5.43(280)A [6]": {"tested_on": "CB1 W5.43(280)A", "details": "cited from earlier work"}, "CB1 W5.43(280)A [7]": {"tested_on": "CB1 W5.43(280)A", "details": "cited from earlier work", "remark": "listed apart in the source"}},
  "data": [
    {"molecule": "CCCCCCC(C)(C)c1ccc([C@@H]2C[C@H](O)CC[C@H]2CCCO)c(O)c1", "note": "[CP55940]", "values": [
      {"measurement": "Reduction of binding affinity by W5.43(194)Y mutation compared with wild-type", "setting": "[1]", "value": "no effect"}
    ]},
    {"molecule": "C=C[C@@]1(C)CC(=O)[C@]2(O)[C@@]3(C)[C@@H](O)CCC(C)(C)[C@@H]3[C@H](O)[C@H](OC(C)=O)[C@@]2(C)O1", "note": "[Forskolin, forskolin]", "values": [
      {"measurement": "EC50", "setting": "[2]", "value": 1320, "unit": "nM"},
      {"measurement": "EC50", "setting": "[3]", "value": 1810, "unit": "nM"},
      {"measurement": "EC50", "setting": "[4]", "value": 2420, "unit": "nM"},
      {"measurement": "EC50", "setting": "[5]", "value": 2020, "unit": "nM"}
    ]},
    {"molecule": "Cc1c(C(=O)c2cccc3ccccc23)c2cccc3c2n1[C@H](CN1CCOCC1)CO3", "note": "[WIN55212-2]", "values": [
      {"measurement": "Reduction of WIN55212-2 stimulated GTPγS binding by CB1 W5.43(280)A mutation", "setting": "CB1 W5.43(280)A [6]", "value": 245, "unit": "fold"},
      {"measurement": "Reduction of binding by CB1 W5.43(280)A mutation", "setting": "CB1 W5.43(280)A [7]", "value": 16.8, "unit": "fold"}
    ]},
    {"molecule": "SR144528", "values": [
      {"measurement": "Reduction of binding affinity by W5.43(194)Y mutation compared with wild-type", "setting": "[1]", "value": 5, "unit": "fold"}
    ]}
  ]
}
